# Laboratory results from article PMC10987480, “Biological and mutational analyses of CXCR4–antagonist interactions and design of new antagonistic analogs” (Bioscience Reports, 2023).
# Positions of bridges follow the written chain, without caps; N, C: chain ends. Non-standard residues stand in square brackets, D forms with d. Residues, ends and D or L forms follow the SMILES beside them. Chains are numbered I, II in the order given. 2Nal = N[C@@H](Cc1ccc2ccccc2c1)C(=O)O; Lys(iPr) = CC(C)NCCCC[C@H](N)C(=O)O
# Tests used:
# [1] = molecular target: T1, CXCR4 I259A (Homo sapiens, UniProt P61073, I259A); assay: Competitive binding to CXCR4 mutant I259A (12G5, CHO cells); set-up: key to the marks not given beside the values; details: TM6, class of reduction vs wild-type CXCR4, 12G5 competition, averages of at least three independent experiments
# T1 construct: expressed in transfected cells
# Description: (§1) Plasmid pcDNA3-CXCR4 and mutated pcDNA3-CXCR4 were extracted and transfected into CHO cells using Lipofectamine 2000 according to the manufacturer’s guidelines. The selective medium containing G418 at a concentration of 1.2 mg/ml was applied to isolate stably transfected cells. CHO cells expressing wild-type CXCR4 and mutant CXCR4 were obtained using fluorescence-activated cell sorting (FACS).
# (§2) All of the CXCR4 mutants were prepared using PCR technology. Briefly, pairs of asymmetrical primers containing the desired amino acid mutations (Supplementary Tables S1 and S2), each complementary to opposite strands of the pcDNA3–CXCR4, were designed for amplification by Q5® High-Fidelity DNA polymerase and the generation of mutated constructs. The methylated pcDNA3–CXCR4 templates were digested by DpnI. The mutated pcDNA3–CXCR4 was transformed into competent E. coli TOP10 for long-term storage and amplification.
# (§3) The procedure for the CXCR4 competitive binding experiments was published previously. Briefly, CXCR4 antibody 12G5 (250 ng/ml) was incubated with 5 × 10^5 cells and varying concentrations of unlabeled compounds in a final volume of 100 μl of assay buffer (PBS with 0.5% BSA and 0.05% NaN3) in 96-well plates for 40 min on ice, after being washed with assay buffer once. The cells were incubated with FITC-conjugated second antibody IgG for 30 min on ice, then washed with assay buffer three times. The fluorescence intensity was measured for excitation at 485 nm and emission at 535 nm using multimode plate reader (PerkinElmer). The IC50 values were calculated using graphpad Prism 7. Experiments were performed at least three times.
# [2] = molecular target: T2, CXCR4 Q200A (Homo sapiens, UniProt P61073, Q200A); assay: Competitive binding to CXCR4 mutant Q200A (12G5, CHO cells); set-up: key to the marks not given beside the values; details: TM5, class of reduction vs wild-type CXCR4, 12G5 competition, averages of at least three independent experiments
# T2 construct: expressed in transfected cells
# Description: as §1, §2, §3
# [3] = molecular target: T3, CXCR4 E288D (Homo sapiens, UniProt P61073, E288D); assay: Competitive binding to CXCR4 mutant E288D (12G5, CHO cells); details: TM7, class of reduction vs wild-type CXCR4, 12G5 competition, averages of at least three independent experiments
# T3 construct: expressed in transfected cells
# Description: as §1, §2, §3
# [4] = molecular target: T4, CXCR4 D262N (Homo sapiens, UniProt P61073, D262N); assay: Competitive binding to CXCR4 mutant D262N (12G5, CHO cells); details: TM6, class of reduction vs wild-type CXCR4, 12G5 competition, averages of at least three independent experiments
# T4 construct: expressed in transfected cells
# Description: as §1, §2, §3
# [5] = molecular target: T5, CXCR4 R30A (Homo sapiens, UniProt P61073, R30A); assay: Competitive binding to CXCR4 mutant R30A (12G5, CHO cells); set-up: key to the marks not given beside the values; details: TM1, class of reduction vs wild-type CXCR4, 12G5 competition, averages of at least three independent experiments
# T5 construct: expressed in transfected cells
# Description: as §1, §2, §3
# [6] = molecular target: CXCR4 (Homo sapiens, UniProt P61073); assay: Competitive CXCR4 binding assay (12G5 antibody probe), wild-type CXCR4 transfected CHO cells; set-up: expressed in transfected cells; Competitive receptor binding activity, wild-type CXCR4 (WT): key to the marks not given beside the values; details: for Competitive receptor binding activity, wild-type CXCR4 (WT): class relative to wild-type, 12G5 competition, stably transfected CHO cells, averages of at least three independent experiments
# Description: The CXCR4-specific antibody, 12G5 was used as a probe for the competitive CXCR4 binding assay to evaluate the binding activity of CXCR4 antagonists.
# Figure 1 Competitive CXCR4 binding curves of eleven CXCR4 antagonists The CXCR4 transfected CHO cells were incubated with different concentrations of antagonists and 250 ng/ml 12G5 antibody. The CXCR4-binding 12G5 antibody was recognized by FITC-conjugated anti-IgG second antibody. The cells treated with only second antibody were used as a negative control (0%) while cells treated with both 12G5 antibody and second antibody were used as a positive control (100%). Cells treated with CXCR4 antagonists were calculated in percentage relative to the positive and negative controls. The data were averages of at least three independent experiments and shown as mean ± standard error of the mean (S.E.M.).
# as §3
# [7] = molecular target: T6, CXCR4 E288Q (Homo sapiens, UniProt P61073, E288Q); assay: Competitive binding to CXCR4 mutant E288Q (12G5, CHO cells); details: TM7, class of reduction vs wild-type CXCR4, 12G5 competition, averages of at least three independent experiments
# T6 construct: expressed in transfected cells
# Description: as §1, §2, §3
# [8] = molecular target: T7, CXCR4 E288A (Homo sapiens, UniProt P61073, E288A); assay: Competitive binding to CXCR4 mutant E288A (12G5, CHO cells); details: TM7, class of reduction vs wild-type CXCR4, 12G5 competition, averages of at least three independent experiments
# T7 construct: expressed in transfected cells
# Description: as §1, §2, §3
# [9] = molecular target: T8, CXCR4 D171A (Homo sapiens, UniProt P61073, D171A); assay: Competitive binding to CXCR4 mutant D171A (12G5, CHO cells); details: TM4, class of reduction vs wild-type CXCR4, 12G5 competition, averages of at least three independent experiments
# T8 construct: expressed in transfected cells
# Description: as §1, §2, §3
# [10] = molecular target: T9, CXCR4 H113A (Homo sapiens, UniProt P61073, H113A); assay: Competitive binding to CXCR4 mutant H113A (12G5, CHO cells); details: TM3, class of reduction vs wild-type CXCR4, 12G5 competition, averages of at least three independent experiments
# T9 construct: expressed in transfected cells
# Description: as §1, §2, §3
# [11] = molecular target: T10, CXCR4 H281A (Homo sapiens, UniProt P61073, H281A); assay: Competitive binding to CXCR4 mutant H281A (12G5, CHO cells); details: TM7, class of reduction vs wild-type CXCR4, 12G5 competition, averages of at least three independent experiments
# T10 construct: expressed in transfected cells
# Description: as §1, §2, §3
# [12] = test system: CXCR4; details: cited from earlier work
# From the text: To understand the receptor–ligand recognition mechanism involving CXCR4 and its antagonists, here in this study we conducted a series of comparative analyses of the biological activities and CXCR4 binding sites of eleven known CXCR4 antagonists, including the three mentioned above, using cell-based bioassays, CXCR4 site-directed mutagenesis and computer-aided molecular modeling. These antagonists studied here were chosen from different representative structural types including both D-peptides (i.e., HC4319, DV1, DV1 dimer, and DV3) and a representative counterpart L-peptide (i.e., V1) derived ...
# [13] = molecular target: T11, CXCR4 N119A (Homo sapiens, UniProt P61073, N119A); assay: Competitive binding to CXCR4 mutant N119A (12G5, CHO cells); details: TM3, class of reduction vs wild-type CXCR4, 12G5 competition, averages of at least three independent experiments
# T11 construct: expressed in transfected cells
# Description: as §1, §2, §3
# [14] = molecular target: T12, CXCR4 W94A (Homo sapiens, UniProt P61073, W94A); assay: Competitive binding to CXCR4 mutant W94A (12G5, CHO cells); details: TM2, class of reduction vs wild-type CXCR4, 12G5 competition, averages of at least three independent experiments
# T12 construct: expressed in transfected cells
# Description: as §1, §2, §3
# [15] = molecular target: T13, CXCR4 F87A (Homo sapiens, UniProt P61073, F87A); assay: Competitive binding to CXCR4 mutant F87A (12G5, CHO cells); details: TM2, class of reduction vs wild-type CXCR4, 12G5 competition, averages of at least three independent experiments
# T13 construct: expressed in transfected cells
# Description: as §1, §2, §3
# [16] = molecular target: T14, CXCR4 Y116A (Homo sapiens, UniProt P61073, Y116A); assay: Competitive binding to CXCR4 mutant Y116A (12G5, CHO cells); details: TM3, class of reduction vs wild-type CXCR4, 12G5 competition, averages of at least three independent experiments
# T14 construct: expressed in transfected cells
# Description: as §1, §2, §3
# T9 sequence (P61073 whole entry H113A): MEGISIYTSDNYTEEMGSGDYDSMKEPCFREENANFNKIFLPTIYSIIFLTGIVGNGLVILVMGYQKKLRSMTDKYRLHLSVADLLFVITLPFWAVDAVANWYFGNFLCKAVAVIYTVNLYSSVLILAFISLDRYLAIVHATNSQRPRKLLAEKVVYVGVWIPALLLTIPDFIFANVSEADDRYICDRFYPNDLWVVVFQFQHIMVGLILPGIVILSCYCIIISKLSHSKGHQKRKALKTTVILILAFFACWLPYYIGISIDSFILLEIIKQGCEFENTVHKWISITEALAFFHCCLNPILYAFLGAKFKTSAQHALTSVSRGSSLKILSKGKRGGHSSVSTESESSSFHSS
# T1 sequence (P61073 whole entry I259A): as the sequence (P61073 whole entry H113A) above, with A113H, I259A counted along it
# T5 sequence (P61073 whole entry R30A): as the sequence (P61073 whole entry H113A) above, with R30A, A113H counted along it
# T10 sequence (P61073 whole entry H281A): as the sequence (P61073 whole entry H113A) above, with A113H, H281A counted along it
# T2 sequence (P61073 whole entry Q200A): as the sequence (P61073 whole entry H113A) above, with A113H, Q200A counted along it
# T8 sequence (P61073 whole entry D171A): as the sequence (P61073 whole entry H113A) above, with A113H, D171A counted along it
# T4 sequence (P61073 whole entry D262N): as the sequence (P61073 whole entry H113A) above, with A113H, D262N counted along it
# T11 sequence (P61073 whole entry N119A): as the sequence (P61073 whole entry H113A) above, with A113H, N119A counted along it
# CXCR4 (Homo sapiens, UniProt P61073), sequence (P61073 whole entry): as the sequence (P61073 whole entry H113A) above, with A113H counted along it
# T13 sequence (P61073 whole entry F87A): as the sequence (P61073 whole entry H113A) above, with F87A, A113H counted along it
# T14 sequence (P61073 whole entry Y116A): as the sequence (P61073 whole entry H113A) above, with A113H, Y116A counted along it
# T12 sequence (P61073 whole entry W94A): as the sequence (P61073 whole entry H113A) above, with W94A, A113H counted along it
# T7 sequence (P61073 whole entry E288A): as the sequence (P61073 whole entry H113A) above, with A113H, E288A counted along it
# T6 sequence (P61073 whole entry E288Q): as the sequence (P61073 whole entry H113A) above, with A113H, E288Q counted along it
# T3 sequence (P61073 whole entry E288D): as the sequence (P61073 whole entry H113A) above, with A113H, E288D counted along it
Compound,"Competitive receptor binding activity, CXCR4 I259A [1]","Competitive receptor binding activity, CXCR4 Q200A [2]","Competitive receptor binding activity, CXCR4 E288D [3]","Competitive receptor binding activity, CXCR4 D262N [4]","Competitive receptor binding activity, CXCR4 R30A [5]","Competitive receptor binding activity, wild-type CXCR4 (WT) [6]","Competitive receptor binding activity, CXCR4 E288Q [7]","Competitive receptor binding activity, CXCR4 E288A [8]","Competitive receptor binding activity, CXCR4 D171A [9]","Competitive receptor binding activity, CXCR4 H113A [10]","Competitive receptor binding activity, CXCR4 H281A [11]",Binding affinity (in words) [12],"Competitive receptor binding activity, CXCR4 N119A [13]","IC50 ([6]; CXCR4 transfected CHO cells, 250 ng/ml 12G5, 40 min on ice, FITC second antibody, mean ± S.E.M. of at least three independent experiments, SEM, read-out: IC50 (nM), inhibition of 12G5 binding to CXCR4)","Competitive receptor binding activity, CXCR4 W94A [14]","Competitive receptor binding activity, CXCR4 F87A [15]",Potency (in words) [12],"Competitive receptor binding activity, CXCR4 Y116A [16]"
CC(C)C[C@@H](N)C(=O)NCC(=O)N[C@H](C)C(=O)N[C@H](CO)C(=O)N[C@H](Cc1c[nH]c2ccccc12)C(=O)N[C@H](Cc1c[nH]cn1)C(=O)N[C@H](CCCNC(=N)N)C(=O)N1CCC[C@@H]1C(=O)N[C@H](CC(=O)O)C(=O)N[C@H](CCCCN)C(=O)NCCCC[C@@H](NC(=O)[C@H]1CCCN1C(=O)[C@@H](CC(C)C)NC(=O)[C@H]1CCCN1C(=O)[C@@H](CCCNC(=N)N)NC(=O)[C@@H](CCCCN)NC(=O)[C@@H](CCC(N)=O)NC(=O)[C@@H](Cc1ccc(O)cc1)NC(=O)CNC(=O)[C@@H](CC(C)C)NC(=O)[C@@H](CS)NC(=O)[C@@H](CS)NC(=O)[C@@H](CCCCN)NC(=O)[C@@H](CC(=O)O)NC(=O)[C@H]1CCCN1C(=O)[C@@H](CCCNC(=N)N)NC(=O)[C@@H](Cc1c[nH]cn1)NC(=O)[C@@H](Cc1c[nH]c2ccccc12)NC(=O)[C@@H](CO)NC(=O)[C@@H](C)NC(=O)CNC(=O)[C@H](N)CC(C)C)C(=O)O [HC4319] (I: H-[dL]G[dA][dS][dW][dH][dR][dP][dD][dK][dC][dC][dL]G[dY][dQ][dK][dR][dP][dL][dP][dK]-OH / II: H-[dL]G[dA][dS][dW][dH][dR][dP][dD][dK]; amide I:22-II:C; N-terminus and C-terminus assumed),+++,+++,+ (30–60% reduction compared with wild-type CXCR4),++ (10–29% reduction compared with wild-type CXCR4),+++,+++,++ (10–29% reduction compared with wild-type CXCR4),+ (30–60% reduction compared with wild-type CXCR4),+++,++ (10–29% reduction compared with wild-type CXCR4),++ (10–29% reduction compared with wild-type CXCR4),–,–,–,–,–,–,–
CC(C)NCCCC[C@H](NC(=O)[C@H]1CCC(=O)N[C@@H](Cc2ccccc2)C(=O)N[C@@H](Cc2ccc(O)cc2)C(=O)N[C@@H](CCCCNC(C)C)C(=O)N[C@H](CCCNC(=N)N)C(=O)N[C@@H](Cc2ccc3ccccc3c2)C(=O)NCC(=O)N1)C(N)=O [LY2510924] (FY[Lys(iPr)][dR][2Nal]G[dE][Lys(iPr)]-NH2; lactam N-7 (inferred)),–,–,–,+++,+++,+++,–,–,–,+ (30–60% reduction compared with wild-type CXCR4),++ (10–29% reduction compared with wild-type CXCR4),subnanomolar,+ (30–60% reduction compared with wild-type CXCR4),135 ± 63.9 nM,–,–,–,–
NCCCCN(Cc1nc2ccccc2[nH]1)[C@H]1CCCc2cccnc21 [AMD11070],+++,+++,–,+++,+++,+++,–,–,+ (30–60% reduction compared with wild-type CXCR4),+ (30–60% reduction compared with wild-type CXCR4),++ (10–29% reduction compared with wild-type CXCR4),–,+++,–,++ (10–29% reduction compared with wild-type CXCR4),+ (30–60% reduction compared with wild-type CXCR4),nanomolar potent,+++
c1cc(CN2CCCNCCNCCCNCC2)ccc1CN1CCCNCCNCCCNCC1 [AMD3100],+++,+++,–,–,+++,+++,–,–,+ (30–60% reduction compared with wild-type CXCR4),++ (10–29% reduction compared with wild-type CXCR4),+++,–,+++,–,–,++ (10–29% reduction compared with wild-type CXCR4),submicromolar,++ (10–29% reduction compared with wild-type CXCR4)
